From US20260337212A1, “IP4-4,6 SUBSTITUTED DERIVATIVE COMPOUNDS FOR USE IN THE TREATMENT, INHIBITION OF PROGRESSION, AND PREVENTION OF ECTOPIC CALCIFICATION” (SANIFIT THERAPEUTICS, S.A., priority 2022, published 2026)
Counter-ions that a name gives are not always drawn.

Assay: Rat calcinosis cutis/calciphylaxis model (vitamin D3 and FeCl3): skin plaque calcification
Type: in vivo, Sprague Dawley rat
Conditions: 60 mg/kg s.c. daily D1-D8; HC (vitamin D3 50,000 IU/kg), FeCl3 0.5 mg/kg
Protocol: The dose-response efficacy of IP4-4,6 derivatives in the prevention and treatment of calcinosis cutis and calciphylaxis (CUA) induced by vitamin D3 and FeCl3 in a rat model was used. The model evaluated the effects of Compound 27 and IP6 on the formation of calcified skin plaques in rats for a duration of 8 days. Animals were sensitized at low concentration (LC, 35,000 IU/kg) and high concentration (HC, 50,000 IU/kg) doses of vitamin D3. A FeCl3 solution (0.5 mg/kg) was used as challenger to induce the formation of skin plaques. All animals were weighed every day before treatment.
Eighty-six male Sprague Dawley (SD) rats (Envigo Corp., Huntingdon, GB) weighing approximately 250-300 g were used. The animals were fed with a standard LASQCdiet® Rod14-H diet (LASvendi, Soest, DE). The animals were divided in 8 groups, 6 to 12 animals per group, as follows:
The following solutions were prepared: (a) 17,500 IU/mL (LC) and 25,000 IU/mL (HC) vitamin D3 (cholecalciferol, Duphafral D3 1000; Zoetis Inc., Parsippany, NJ, US), (b) 0.3 mg/mL FeCl3 (FeCl3·6H2O, 99%, Scharlab S. L., Barcelona, E S), (c) 30 mg/mL IP6 (660 g/mol phytic acid, pH 6.5-7.7), and (d) 15, 30, and 50 mg/mL Compound 27 (754.45 g/mol free acid, pH 6.5-7.7). All solutions were prepared in a 0.9% (w/v) physiological saline NaCl medium. An application volume of 2 mL/kg was employed.
Group 1—Control (sham), 6 animals. Animals in group 1 were administered subcutaneously physiological saline (0.9% (w/v) NaCl solution daily from D1 to D3 in the interscapular space, and with one saline 0.9% injection at each of the two ventral sites in the thorax on D4. Animals in group 1 were not administered Vit D or FeCl3 solutions.
(§1) Group 2—Physiological saline solution low concentration (Vehicle LC): Vit D 35,000 IU/kg, 0.5 mg/kg FeCl3 solution, 10 animals. Vit D at dose 35,000 IU/kg was administered subcutaneously x 3 consecutive days (D1, D2, D3), and one 0.5 mg/kg FeCl3 injection at each of the two ventral sites in the thorax on D4. This group received a daily saline 0.9% s.c. treatment (D1 to D8).
(§2) Group 3—Compound 27 60 mg/kg LC: Vit D 35,000 IU/kg, 0.5 mg/kg FeCl3, 10 animals. Vit D at dose 35,000 IU/kg was administered subcutaneously x 3 consecutive days (D1, D2, D3), and one 0.5 mg/kg FeCl3 injection at each of the two ventral sites in the thorax on D4. This group received a daily Compound 27 s.c. treatment at 60 mg/kg dose (D1 to D8).
as §1, with “4—Physiological” for “2—Physiological”, “high” for “low”, “HC):” for “LC):”, “50,000” for “35,000”, “FeCl3, 12” for “FeCl3 solution, 10”
as §2, with “5—IP6” for “3—Compound 27”, “HC,” for “LC:”, “50,000” for “35,000”, “12” for “10”, “IP6” for “Compound 27”
as §2, with “6—Compound” for “3—Compound”, “30” for “60”, “HC,” for “LC:”, “50,000” for “35,000”, “12” for “10”
as §2, with “7—Compound” for “3—Compound”, “[…],” for “LC:”, “50,000” for “35,000”, “12” for “10”
Group 8—Compound 27 100 mg/kg HC, Vit D 50,000 IU/kg, 0.5 mg/kg FeCl3, 12 animals. […]

Row | SMILES | Skin plaque % inhibition of calcification
1 | O=P(O)(O)O[C@H]1[C@H](OP(=O)(O)O)[C@@H](OP(=O)(O)O)[C@H](OP(=O)(O)O)[C@@H](OP(=O)(O)O)[C@H]1OP(=O)(O)O [IP6, phytic acid, reference compound] | 58.8 ± 14.4 %

Assay: In vitro inhibition of calcium phosphate crystallization in human plasma (spectrophotometric)
Type: biochemical
Conditions: 0-100 μM, 1.5 mM phosphate, 12.5 mM calcium, pH 7.4, 30 min, rt, read-out: Relative Potency (EC50, inhibition of calcium phosphate crystallization)
Protocol: The in vitro efficacy of the IP4-4,6 substituted derivatives (e.g., Compounds 1 to 53) of the invention on the inhibition of calcium phosphate crystallization in human plasma samples was evaluated according to a spectrophotometric assay previously described in the art (Ferrer M, et al., Sci Rep 2017; 7:6858, doi:10.1038/s41598-017-07203-x).
A 96-well plate was employed. Plasma was spiked (1 volume of the IP4-4,6 substituted derivatives of the invention per 19 volumes of plasma) with increasing concentrations of the derivatives in the range of 0-100 μM. Plasma was then centrifuged at 10,000 g at rt and subsequently mixed with a mixture of 5 mM hydrogen phosphate and 41.67 mM calcium to attain final concentrations of 1.5 mM phosphate and 12.5 mM calcium, respectively. All reagent solutions were filtered, and pH adjusted to 7.4.
Crystallization of calcium phosphate was monitored spectrophotometrically for 30 min at rt by measuring the increments in absorbance at 550 nm using the Biotek Powerwave XS Microplate spectrophotometer (BioTek Instruments, Inc., Winooski, VT, US). The plate was incubated at rt in an orbital shaker and absorbance measured every 3 min.
Plasma crystallization was assessed based on slope measurement in the linear range between 6 and 24 min from plots of increase in absorbance versus logarithm of time. The efficacy of different myo-inositol phosphates derivatives in preventing in vitro formation of calcium phosphate crystals was assessed in human plasma samples using the slopes obtained between 6- and 24-min. Inhibition of crystallization was measured by comparing the slopes of the control sample (blank plasma) with those of samples containing the inhibitor as shown below: […]

Row | SMILES | EC50
2 | COCc1cn(CCCCOC2C(OP(=O)(O)O)C(OCCCCn3cc(COC)nn3)C(OP(=O)(O)O)C(OP(=O)(O)O)C2OP(=O)(O)O)nn1 (stereo not drawn) [Compound 37, 4,6-O-bis(4-(4-(methoxymethyl)-1H-1,2,3-triazol-1-yl)butyl)-myo-inositol-1,2,3,5-tetrakis(phosphate) octasodium salt] | 5 to 10 µM
3 | COCc1cn(CCCCCCOC2C(OP(=O)(O)O)C(OCCCCCCn3cc(C(=O)O)nn3)C(OP(=O)(O)O)C(OP(=O)(O)O)C2OP(=O)(O)O)nn1 (stereo not drawn) [Compound 41, 4-O-(6-(4-carboxy-1H-1,2,3-triazol-1-yl)hexyl)-6-O-(6-(4-(methoxymethyl)-1H-1,2,3-triazol-1-yl)hexyl)-myo-inositol-1,2,3,5-tetrakis(phosphate) nonasodium salt] | ≤ 5 µM
4 | COc1ccc(CCCOC2C(OP(=O)(O)O)C(OCCCc3ccc(OC)cc3)C(OP(=O)(O)O)C(OP(=O)(O)O)C2OP(=O)(O)O)cc1 (stereo not drawn) [Compound 43, 4,6-O-bis(3-(4-methoxyphenyl)propyl)-myo-inositol-1,2,3,5-tetrakis(phosphate) octasodium salt] | 5 to 10 µM
5 | O=P(O)(O)OC1C(OCCCc2cccc(C(F)(F)F)c2)C(OP(=O)(O)O)C(OP(=O)(O)O)C(OP(=O)(O)O)C1OCCCc1cccc(C(F)(F)F)c1 (stereo not drawn) [Compound 44, 4,6-O-bis(3-(3-(trifluoromethyl)phenyl)propyl)-myo-inositol-1,2,3,5-tetrakis(phosphate) octasodium salt] | > 10 µM
6 | O=C(NCCCOC1C(OP(=O)(O)O)C(OCCCNC(=O)NC2CCCC2)C(OP(=O)(O)O)C(OP(=O)(O)O)C1OP(=O)(O)O)NC1CCCC1 (stereo not drawn) [Compound 47, 4,6-O-bis(3-(3-cyclopentylureido)propyl)-myo-inositol-1,2,3,5-tetrakis(phosphate) octasodium salt] | ≤ 5 µM
7 | O=C(NCCCCCOC1C(OP(=O)(O)O)C(OCCCCCNC(=O)c2ccccc2)C(OP(=O)(O)O)C(OP(=O)(O)O)C1OP(=O)(O)O)c1ccccc1 (stereo not drawn) [Compound 48, 4,6-O-bis(5-benzamidopentyl)-myo-inositol-1,2,3,5-tetrakis(phosphate) octasodium salt] | > 10 µM
8 | O=C(NCCCCCOC1C(OP(=O)(O)O)C(OCCCCCNC(=O)c2cccs2)C(OP(=O)(O)O)C(OP(=O)(O)O)C1OP(=O)(O)O)c1cccs1 (stereo not drawn) [Compound 49, 4,6-O-bis(5-(thiophene-2-carboxamido)pentyl)-myo-inositol-1,2,3,5-tetrakis(phosphate) octasodium salt] | 5 to 10 µM
9 | CCCCCOC1C(OP(O)(O)=S)C(OCCCCC)C(OP(O)(O)=S)C(OP(O)(O)=S)C1OP(O)(O)=S (stereo not drawn) [Compound 50, 4,6-O-dipentyl-myo-inositol-1,2,3,5-tetrakis(thiophosphate) octasodium salt] | > 10 µM
10 | COCCCCCOC1C(OP(O)(O)=S)C(OCCCCCOC)C(OP(O)(O)=S)C(OP(O)(O)=S)C1OP(O)(O)=S (stereo not drawn) [Compound 51, 4,6-O-bis(5-Methoxypentyl)-myo-inositol-1,2,3,5-tetrakis(thiophosphate) octasodium salt] | > 10 µM
11 | O=C(O)CCCOC1C(OP(=O)(O)O)C(OCCCC(=O)O)C(OP(=O)(O)O)C(OP(=O)(O)O)C1OP(=O)(O)O (stereo not drawn) [Compound 52, 4,6-O-bis(3-carboxypropyl)-myo-inositol-1,2,3,5-tetrakis(phosphate) decasodium salt] | ≤ 5 µM
12 | C#CCOC1C(OP(=O)(O)O)C(OCC#C)C(OP(=O)(O)O)C(OP(=O)(O)O)C1OP(=O)(O)O (stereo not drawn) [Compound 53, 4,6-O-Dipropargyl-myo-inositol-1,2,3,5-tetrakis(phosphate) octasodium salt] | ≤ 5 µM
